Source: PMC3855985, “Simultaneous Determination of Volatile Constituents from Acorus tatarinowii Schott in Rat Plasma by Gas Chromatography-Mass Spectrometry with Selective Ion Monitoring and Application in Pharmacokinetic Study” (Journal of Analytical Methods in Chemistry, 2013)

Experiment: Pharmacokinetic study in rats after single oral dose of volatile oil of Acorus tatarinowii Schott (GC-MS/SIM of plasma)
Settings: for CL / Vd / AUC(0~t) / AUC(0~∞) / C max / T1/2 α / T 1/2β / T max: rats (n = 6); for CL / Vd / Compartment model of the plasma profile / AUC(0~t) / AUC(0~∞) / C max / T1/2 α / T 1/2β / T max: single oral dose 0.2 g/kg volatile oil of Acorus tatarinowii Schott; for Compartment model of the plasma profile: rats
Method: GC-MS analyses were performed with a Shimadzu GC-MS QP2010 (Kyoto, Japan). Chromatographic separation was achieved on a Restek Rxi-5MS capillary column (30 m × 0.32 mm I.D., 0.25 μm film thickness, Shimadzu, Japan) using nitrogen as carrier gas at 2 mL/min in a constant flow rate mode. […] The temperatures of injector, interface, and ion source were 250, 280, and 230°C, respectively. Detection was operated by selected ionmonitoring (SIM) mode (70 eV, electron impact mode).
In the SIM mode, the peaks of α-asarone, β-asarone, methyl eugenol, and IS in plasma were identified by matching the retention time and the abundant ions of m/z 178 for methyl eugenol, m/z 208 for α-asarone, β-asarone, and m/z 144 for IS. The injection volume was 1.0 μL. Data were collected using the GC-MS solution (Kyoto, Japan).
Six healthy male Sprague-Dawley rats, weighing 250–280 g, were supplied by the Guangdong Laboratory Animals Monitoring Institute (Guangdong, China). The rats were housed in a standard animal holding room with normal access to food and water and 12 h light cycle. The animals were fasted overnight prior to dosing, with water allowance ad libitum. All animal experiments were carried out according to the Guidelines for the Care and Use of Laboratory Animals and were approved by the Animal Experimentation Ethics Committee.
In a 1.5 mL Eppendorf tube, 100 μL of plasma was spiked with 10 μL of 2.0 μg/mL IS solution. An aliquot of 40 μL 10% (V : V) trichloracetic acid water solution and 600 μL acetonitrile was used to remove the proteins in the plasma through vortexed for 2 min followed by the centrifugation of 10 min at 8000 rpm. The supernatant was collected in a clean tube for next use, while the residue was extracted by 300 μL acetic ether for three times. The acetic ether layer and the above supernatant were collected together and evaporated to dryness under a stream of nitrogen. The residue was dissolved in 100 μL of acetone for further GC-MS analysis.
Volatile oil of Acorus tatarinowii Schott was administered orally to the rat in a single dose of 0.2 g/kg. Blood samples were collected in heparinized tube at 0, 5, 10, 20, 30, 60, 90, 120, 180, 300, 480, 720, 960, and 1200 min after dose. All the samples were extracted and analyzed under the proposed condition.
The Microsoft Excel Program Drug and Statistics 2.0 (T.C.M. Shanghai, China) was employed to process and calculate the pharmacokinetic parameters. The parameters of the area under curve (AUC), the maximum plasma concentration (C max) and the corresponding time (t max), the half-life of absorption (t 1/2), and so forth were used to decrypt the pharmacokinetic properties of α-asarone, β-asarone, and methyl eugenol. Statistical analysis of the biological data was performed by the Student's t-test. All results were expressed as arithmetic mean ± standard deviation (SD).

[1] = male, Sprague-Dawley, rat, plasma, po, 0.2 g/kg

AUC(0-inf) [1] | AUC(0-t) [1] | Cmax [1] | Tmax [1] | half-life [1] | Structure (SMILES) | CL (plasma) | Vd (plasma) | Compartment model of the plasma profile | AUC(0~t) (plasma) | AUC(0~∞) (plasma) | C max (plasma) | T1/2 α (plasma) | T 1/2β (plasma) | T max (plasma)
41.5 ng·h/mL | 35.5 ng·h/mL | 21 ± 1 ng/mL | 10 min | 67.7 ± 3.32 min | C=CCc1ccc(OC)c(OC)c1 [Methyl Eugenol, Methyl eugenol] | 0.40 ± 0.04 mL/min/kg | 39.35 ± 4.08 L/kg | one-compartment open models | – | – | – | – | – | –
– | – | – | – | – | C/C=C/c1cc(OC)c(OC)cc1OC [α-Asarone] | 0.60 ± 0.44 mL/min/kg | 22.93 ± 16.11 L/kg | two-compartment open model | 47.51 ± 28.49 mg·min/L | 56.67 ± 35.91 mg·min/L | 530 ± 240 ng/mL | 58.92 ± 20.80 min | 69.28 ± 6.12 min | 11.25 ± 6.29 min
– | – | – | – | – | C/C=C\c1cc(OC)c(OC)cc1OC [β-Asarone, β-asarone] | 0.38 ± 0.05 mL/min/kg | 149.87 ± 90.78 L/kg | two-compartment open model | 368.43 ± 40.05 mg·min/L | 407.52 ± 55.78 mg·min/L | 2470 ± 580 ng/mL | 54.39 ± 29.46 min | 69.30 ± 0.21 min | 13.75 ± 11.09 min
